Converted amounts (≈) assume the structure as drawn. The source made the active and inactive calls. The calls are words filed in the database; no cut-off is given here.
How the values were obtained:
Staphylococcus aureus [1] = test: Antibacterial activity against Staphylococcus aureus NCIMB 12702 after 24 hrs by serial dilution method; format: functional; conditions: for MIC80 / MIC50 / MIC90: Staphylococcus aureus, NCIMB 12702, 24 h
Escherichia coli = test: Antibacterial activity against Escherichia coli NCIMB 9485 after 24 hrs by serial dilution method; format: functional; conditions: for MIC50 / MIC80 / MIC90: NCIMB 9485, 24 h
Pseudomonas aeruginosa = test: Antibacterial activity against Pseudomonas aeruginosa ATCC 10145 after 24 hrs by serial dilution method; format: functional, organism-based
Staphylococcus aureus [2] = test: Antibacterial activity against methicillin-resistant Staphylococcus aureus after 24 hrs by serial dilution method; format: functional
[3] = Toxicity in sixth development stage of Galleria mellonella larvae assessed as survival rate at 10 ug/ml after 24 hrs; format: organism-based; conditions: in vivo
[4] = Toxicity in sixth development stage of Galleria mellonella larvae assessed as survival rate at 50 ug/ml after 48 hrs; format: organism-based; conditions: in vivo
[5] = Toxicity in sixth development stage of Galleria mellonella larvae assessed as survival rate at 1000 ug/ml after 48 hrs; format: organism-based; conditions: in vivo
[6] = Toxicity in sixth development stage of Galleria mellonella larvae assessed as survival rate at 10 ug/ml after 72 hrs; format: organism-based; conditions: in vivo
[7] = Toxicity in sixth development stage of Galleria mellonella larvae assessed as survival rate at 1 ug/ml after 48 hrs; format: organism-based; conditions: in vivo
[8] = Toxicity in sixth development stage of Galleria mellonella larvae assessed as survival rate at 100 ug/ml after 24 hrs; format: organism-based; conditions: in vivo
[9] = Toxicity in sixth development stage of Galleria mellonella larvae assessed as survival rate at 10 ug/ml after 48 hrs; format: organism-based; conditions: in vivo
Galleria mellonella = test: Toxicity in sixth development stage of Galleria mellonella larvae assessed as larvae pupation at 1 to 1000 ug/ml after 7 days relative to control; format: organism-based; conditions: in vivo, 168 h
[10] = Toxicity in sixth development stage of Galleria mellonella larvae assessed as survival rate at 50 ug/ml after 24 hrs; format: organism-based; conditions: in vivo
[11] = Toxicity in sixth development stage of Galleria mellonella larvae assessed as survival rate at 1 ug/ml after 72 hrs; format: organism-based; conditions: in vivo
[12] = Toxicity in sixth development stage of Galleria mellonella larvae assessed as survival rate at 100 ug/ml after 48 hrs; format: organism-based; conditions: in vivo
[13] = Toxicity in sixth development stage of Galleria mellonella larvae assessed as survival rate at 50 ug/ml after 72 hrs; format: organism-based; conditions: in vivo
[14] = Toxicity in sixth development stage of Galleria mellonella larvae assessed as survival rate at 1000 ug/ml after 24 hrs; format: organism-based; conditions: in vivo
[15] = Toxicity in sixth development stage of Galleria mellonella larvae assessed as survival rate at 1000 ug/ml after 72 hrs; format: organism-based; conditions: in vivo
[16] = Toxicity in sixth development stage of Galleria mellonella larvae assessed as survival rate at 1 ug/ml after 24 hrs; format: organism-based; conditions: in vivo
[17] = Toxicity in sixth development stage of Galleria mellonella larvae assessed as survival rate at 100 ug/ml after 72 hrs; format: organism-based; conditions: in vivo

## CN(C)CCNC(=S)Nc1cc(C(F)(F)F)cc(C(F)(F)F)c1
Staphylococcus aureus [1]
  MIC: inactive
Escherichia coli
  MIC: inactive
Pseudomonas aeruginosa
  MIC: inactive

## CN(C)[C@@H]1CCCC[C@H]1NC(=S)Nc1cc(C(F)(F)F)cc(C(F)(F)F)c1
Staphylococcus aureus [1]
  MIC80: 90.8 µM (≈ 37.5 µg/mL)
Staphylococcus aureus [2]
  MIC50: 21.5 µM (≈ 8.91 µg/mL)
  MIC90: 32.2 µM (≈ 13.3 µg/mL)
Escherichia coli
  MIC50: 23.8 µM (≈ 9.84 µg/mL)
  MIC80: 90.8 µM (≈ 37.5 µg/mL)
  MIC90: 120 µM (≈ 49.6 µg/mL)
Pseudomonas aeruginosa
  MIC: inactive

## CCN(CC)CCNC(=S)Nc1cc(C(F)(F)F)cc(C(F)(F)F)c1
[3]
  survival at 24 h: 100%
Staphylococcus aureus [1]
  MIC50: 96.9 µM (≈ 37.5 µg/mL)
  MIC80: 129 µM (≈ 50 µg/mL)
  MIC90: 194 µM (≈ 75.1 µg/mL)
Staphylococcus aureus [2]
  MIC50: 13.5 µM (≈ 5.22 µg/mL)
  MIC90: 23.5 µM (≈ 9.11 µg/mL)
Escherichia coli
  MIC50: 96.9 µM (≈ 37.5 µg/mL)
  MIC80: 129 µM (≈ 50 µg/mL)
  MIC90: 194 µM (≈ 75.1 µg/mL)
[4]
  survival at 48 h: 100%
[5]
  survival at 48 h: 100%
[6]
  survival at 72 h: 100%
[7]
  survival at 48 h: 100%
[8]
  survival at 24 h: 100%
[9]
  survival at 48 h: 100%
Galleria mellonella
  Activity: Non-toxic
[10]
  survival at 24 h: 100%
[11]
  survival at 72 h: 100%
[12]
  survival at 48 h: 100%
[13]
  survival at 72 h: 100%
Pseudomonas aeruginosa
  MIC: inactive
[14]
  survival at 24 h: 100%
[15]
  survival at 72 h: 100%
[16]
  survival at 24 h: 100%
[17]
  survival at 72 h: 100%

## C=CC1CN2CCC1CC2[C@H](OCc1ccccc1)c1ccnc2ccc(OC)cc12 (stereo partly specified)
Staphylococcus aureus [1]
  MIC90: > 200 µM
Escherichia coli
  MIC90: > 200 µM
Pseudomonas aeruginosa
  MIC: inactive

## C=C[C@H]1CN2CC[C@H]1C[C@H]2[C@@H](N)c1ccnc2ccc(OC)cc12
Staphylococcus aureus [1]
  MIC50: > 309 µM
  MIC90: > 309 µM
Escherichia coli
  MIC50: > 309 µM
  MIC90: 309 µM (≈ 100 µg/mL)
Pseudomonas aeruginosa
  MIC: inactive

## CCC1CN2CCC1CC2[C@@H](OC(=O)c1ccc(Cl)cc1)c1ccnc2ccc(OC)cc12 (stereo partly specified)
Staphylococcus aureus [1]
  MIC90: 79.4 µM (≈ 36.9 µg/mL)
Escherichia coli
  MIC90: > 200 µM
Pseudomonas aeruginosa
  MIC: inactive

## CN[C@@H](CC(C)C)C(=O)N[C@H]1C(=O)N[C@@H](CC(N)=O)C(=O)N[C@H]2C(=O)N[C@H]3C(=O)N[C@H](C(=O)N[C@@H](C(=O)O)c4cc(O)cc(O)c4-c4cc3ccc4O)[C@H](O)c3ccc(c(Cl)c3)Oc3cc2cc(c3O[C@H]2O[C@@H](CO)[C@H](O)[C@@H](O)[C@@H]2O[C@@H]2C[C@@](C)(N)[C@@H](O)[C@@H](C)O2)Oc2ccc(cc2Cl)[C@H]1O
Staphylococcus aureus [2]
  MIC90: 1.35 µM (≈ 1.96 µg/mL)

## CNC(=S)Nc1cc(C(F)(F)F)cc(C(F)(F)F)c1
Staphylococcus aureus [1]
  MIC: inactive
Escherichia coli
  MIC: inactive
Pseudomonas aeruginosa
  MIC: inactive

## FC(F)(F)c1cc(NC(=S)NC2CCCCC2)cc(C(F)(F)F)c1
Staphylococcus aureus [1]
  MIC50: 135 µM (≈ 50 µg/mL)
  MIC90: > 270 µM
Escherichia coli
  MIC50: 101 µM (≈ 37.5 µg/mL)
  MIC90: > 270 µM
Pseudomonas aeruginosa
  MIC: inactive

## C=C[C@H]1CN2CC[C@H]1C[C@H]2[C@@H](NC(=S)Nc1cc(C(F)(F)F)cc(C(F)(F)F)c1)c1ccnc2ccccc12
[3]
  survival at 24 h: 100%
Staphylococcus aureus [1]
  MIC50: 8.32 µM (≈ 4.7 µg/mL)
  MIC90: 16.6 µM (≈ 9.38 µg/mL)
Staphylococcus aureus [2]
  MIC50: 10.8 µM (≈ 6.1 µg/mL)
  MIC90: 18.1 µM (≈ 10.2 µg/mL)
Escherichia coli
  MIC50: 5.54 µM (≈ 3.13 µg/mL)
  MIC90: 8.32 µM (≈ 4.7 µg/mL)
[4]
  survival at 48 h: 100%
[5]
  survival at 48 h: 100%
[6]
  survival at 72 h: 100%
[7]
  survival at 48 h: 100%
[8]
  survival at 24 h: 100%
[9]
  survival at 48 h: 100%
Galleria mellonella
  Activity: Non-toxic
[10]
  survival at 24 h: 100%
[11]
  survival at 72 h: 100%
[12]
  survival at 48 h: 100%
[13]
  survival at 72 h: 100%
Pseudomonas aeruginosa
  MIC: inactive
[14]
  survival at 24 h: 100%
[15]
  survival at 72 h: 100%
[16]
  survival at 24 h: 100%
[17]
  survival at 72 h: 100%

## CCC1CN2CCC1C[C@H]2[C@@H](Oc1ccc(O[C@@H](c2ccnc3ccc(OC)cc23)[C@@H]2CC3CCN2CC3CC)c2c1C(=O)c1ccccc1C2=O)c1ccnc2ccc(OC)cc12 (stereo partly specified)
Staphylococcus aureus [1]
  MIC82: 124.9 µM (≈ 107 µg/mL)
Escherichia coli
  MIC90: > 200 µM
Pseudomonas aeruginosa
  MIC: inactive

From ChEMBL document CHEMBL3745710, “Synthesis, antibacterial and anti-MRSA activity, in vivo toxicity and a structure-activity relationship study of a quinoline thiourea” (Bioorg Med Chem Lett, 2016)
